# Patent US20260317367A1, “SALTS INCLUDING CRYSTALLINE SALTS OF 25-HYDROXY-CHOLEST-5-EN-3-SULFATE AND METHODS FOR PREPARING SAME” (Durect Corporation, priority 2022, published 2026)
# Counter-ions that a name gives are not always drawn.
# Columns and labels:
# Format in all cases: physicochemical
# [1] = Angle of repose of 25HC3S salts; conditions: for Flow Property per USP<1174> Powder Flow: classification by angle of repose
# Description: Angle of repose is measured as follows. Powder is poured from a funnel onto a flat surface until a cone of powder is created. The angle of repose is calculated according to the following equation: […]
# Table C1, from USP<1174> Powder Flow, describes the powder flow properties correlating to the angles of repose.
# The lower the angle of repose, the more flowable is a material. Powder with an angle of repose between 25° to 30° will show excellent flow through a hopper, feed frame, die table and die bore smoothly. From 41° to greater than 66°, you may experience powder flow difficulties like rat-holing or bridging within the hopper.
# The angle of repose was determined by pouring approximately 2 grams of a 25HC3S salt through a 7 mm inner diameter plastic tube into the center of a 21.14 mm diameter rubber O-ring, resulting in the formation of a powder cone of fixed diameter. The height of the cone was estimated with calipers.
# [2] = Thermogravimetric analysis (TGA), weight loss
# Description: (§1) Differential scanning calorimetry (DSC) is a thermoanalytical technique where the difference in the amount of heat required to increase the temperature of a sample and reference is measured as a function of temperature. Using this technique, phase transitions of a sample can be measured such as melting point. Decomposition can also be observed by DSC as can dehydration events. In the context of DSC measurements, there is also variability and the term “about” means ±1° C., and such variability is to be understood whether a DSC measurement is prefaced by “about” or not unless specified otherwise. Exemplary methods for collecting DSC data are set forth in Example 21. Thermogravimetric analysis, sometimes referred to as, thermal gravimetric analysis (TGA) is a thermal method of thermal analysis where the mass of a sample is measured as a function of time as the sample temperature changes. For example, when samples disclosed herein are heated and a loss in mass is measured prior to decomposition, this is likely indicative of the loss of water from the sample and may indicate that the sample being heated is a hydrate. Exemplary methods for collecting TGA are set forth in Example 23.
# TG analysis was performed using a Mettler-Toledo TGA/DSC3 analyzer. Temperature and enthalpy adjustments were performed using indium, tin, and zinc, and then verified with indium. The balance was verified with calcium oxalate. The sample was placed in an open aluminum pan. The pan was hermetically sealed, the lid pierced, then inserted into the TG furnace. A weighed aluminum pan configured as the sample pan was placed on the reference platform. The furnace was heated under nitrogen. Each sample was heated from ambient temperature to 350° C. at 10° C./min. Although thermograms are plotted by reference temperature (x-axis), results are reported according to sample temperatures.
# [3] = Differential scanning calorimetry (DSC), thermal decomposition / endothermic transition; conditions: for Decomposition temperature (DSC): 10° C./min; for First significant endothermic transition (DSC): indicative of thermal degradation or solid-state transformation
# Description: as §1
# DSC was performed using a Mettler-Toledo DSC3+ differential scanning calorimeter. A tau lag adjustment is performed with indium, tin, and zinc. The temperature and enthalpy are adjusted with octane, phenyl salicylate, indium, tin and zinc. The adjustment is then verified with octane, phenyl salicylate, indium, tin, and zinc. The sample was placed into a hermetically sealed aluminum DSC pan, and the weight was accurately recorded. The pan was then inserted into the DSC cell. A weighed aluminum pan configured as the sample pan was placed on the reference side of the cell. The pan lid was pierced prior to sample analysis. Samples were analyzed from 30° C. to 350° C. or 30° C. to 250° C., both at 10° C./min.
# [4] = X-ray powder diffraction before and after DVS (form stability); conditions: 5% to 95% RH
# Description: XRPD patterns were collected with a PANalytical X'Pert PRO MPD or a PANalytical Empyrean diffractometer using an incident beam of Cu radiation produced using an Optix long, fine-focus source. An elliptically graded multilayer mirror was used to focus Cu Kα X-rays through the specimen and onto the detector. Prior to the analysis, a silicon specimen (NIST SRM 640f) was analyzed to verify the observed position of the Si 111 peak is consistent with the NIST-certified position. A specimen of the sample was sandwiched between 3-μm-thick films and analyzed in transmission geometry. A beam-stop, short antiscatter extension, and antiscatter knife edge were used to minimize the background generated by air. Soller slits for the incident and diffracted beams were used to minimize broadening and asymmetry from axial divergence. Diffraction patterns were collected using a scanning position-sensitive detector (X'Celerator) located 240 mm from the specimen and Data Collector software v. 5.5. All images have the instrument labeled as X'Pert PRO MPD regardless of the instrument used.
# XRPD patterns were collected with a PANalytical X'Pert PRO MPD diffractometer using an incident beam of Cu Kα radiation produced using a long, fine-focus source and a nickel filter. The diffractometer was configured using the symmetric Bragg-Brentano geometry. Prior to the analysis, a silicon specimen (NIST SRM 640f) was analyzed to verify the observed position of the Si 111 peak is consistent with the NIST-certified position. A specimen of the sample was prepared as a thin, circular layer centered on a silicon zero-background substrate. Antiscatter slits (SS) were used to minimize the background generated by air. Soller slits for the incident and diffracted beams were used to minimize broadening from axial divergence. Diffraction patterns were collected using a scanning position-sensitive detector (X'Celerator) located 240 mm from the sample and Data Collector software v. 5.5
# (§2) Dynamic vapor sorption data was collected on a Surface Measurement System DVS Intrinsic instrument. The samples were not dried prior to analysis. Sorption and desorption data were collected over a range from 5% to 95% RH in 10% RH increments under a nitrogen purge. The equilibrium criteria used for the analyses were 0.001 dm/dt weight change in 5 minutes with a minimum step time of 30 minutes and maximum equilibration time of 180 minutes with a 3 minute data logging interval. Data were not corrected for the initial moisture content of the sample.
# [5] = Dynamic vapor sorption (DVS), hygroscopicity; conditions: DVS; for Water uptake (weight gain) up to about 95% relative humidity: 5% to about 95% RH; for Reversibility of water uptake (in words): RH reduced from 95% to 5%
# From the text: Dynamic vapor sorption (DVS) measures the uptake of a vapor (typically water) by a sample when exposed to a changing relative humidity. The loss of water can also be measured as relative humidity is decreased. Hygroscopic materials tend to absorb water more readily than non-hygroscopic. In some cases, hydrates absorb water to create higher-order hydrates (e.g., a monohydrate converting to a dihydrate when exposed to increasingly humid conditions). In some salts of the disclosure, moisture is retained upon exposure in a DVS experiment and little or no weight loss is observed upon heating from room temperature. In such experiments, the hygroscopic nature of the salt under study may indicate the formation of a hydrate from an anhydrate. […] Exemplary methods for collecting DVS data are set forth in Example 26.
# as §2
# [6] = listed as crystalline 25HC3S calcium
# [7] = listed as 25HC3S hydroxyethylammonium
# [8] = listed as crystalline 25HC3S hydroxyethylammonium
# [9] = listed as crystalline 25HC3S benzathine
# [10] = listed as 25HC3S diethanolamine
# [11] = listed as 25HC3S t-butylammonium
# [12] = listed as crystalline 25HC3S t-butylammonium
structure (smiles),measurement,setting,value
CC(CCCC(C)(C)O)C1CCC2C3CC=C4CC(OS(=O)(=O)O)CCC4(C)C3CCC12C (stereo not drawn) [Salt #2],Flow Property per USP<1174> Powder Flow,[1]; listed as 25HC3S calcium,Passable - may hang up
same,Angle of Repose,[1]; listed as 25HC3S calcium,42.6 degrees
same,"Angle of Repose, Rounded Whole Number",[1]; listed as 25HC3S calcium,43 degrees
same,"Weight loss by TGA, about 112° C. to about 130° C.",[2]; about 112° C. to about 130° C.,3.1%
same,"Weight loss by TGA, room temperature to about 93° C.",[2]; room temperature to about 93° C.,about 0.9%
same,Decomposition temperature (DSC),[3]; [6],about 130 °C
same,Change of x-ray powder diffraction pattern after DVS (in words),[4]; [6],not an appreciable change
CC(CCCC(C)(C)O)C1CCC2C3CC=C4CC(OS(=O)(=O)O)CCC4(C)C3CCC12C (stereo not drawn) [Salt #3],Flow Property per USP<1174> Powder Flow,[1]; listed as 25HC3S zinc,Passable - may hang up
same,Angle of Repose,[1]; listed as 25HC3S zinc,42.4 degrees
same,"Angle of Repose, Rounded Whole Number",[1]; listed as 25HC3S zinc,42 degrees
same,"Water uptake (change in mass), 25% to 45% RH",[5]; between 25% and 45% relative humidity,about 2.8%
same,"Weight loss by TGA, about […] C. to about 190° C.","[2]; about […] C. to about 190° C., may be decomposition",11.5%
same,"Weight loss by TGA, room temperature to about 130° C.",[2]; room temperature to about 130° C.,about 5.1%
same,Decomposition temperature (DSC),[3]; listed as crystalline 25HC3S zinc,about 119 °C
CC(CCCC(C)(C)O)C1CCC2C3CC=C4CC(OS(=O)(=O)O)CCC4(C)C3CCC12C (stereo not drawn) [Salt #5],Angle of Repose,[1]; [7],24.8 degrees
same,"Angle of Repose, Rounded Whole Number",[1]; [7],25 degrees
same,Hygroscopicity (in words),[5]; [8],hygroscopic
same,"Weight loss by TGA, ambient to 134° C.",[2]; ambient to 134° C.,about 2.7%
same,Change of x-ray powder diffraction pattern after DVS (in words),[4]; [8],appearance of extra x-ray powder diffraction peaks
CC(CCCC(C)(C)O)C1CCC2C3CC=C4CC(OS(=O)(=O)O)CCC4(C)C3CCC12C (stereo not drawn) [Salt #7],Flow Property per USP<1174> Powder Flow,[1]; listed as 25HC3S meglumine,Fair - aid not needed
same,Angle of Repose,[1]; listed as 25HC3S meglumine,37.3 degrees
same,"Angle of Repose, Rounded Whole Number",[1]; listed as 25HC3S meglumine,37 degrees
same,"Water uptake, plateau above 35% RH",[5]; stable plateau above 35% relative humidity,about 3%
same,"Loss of moisture by TGA, starting with ambient",[2]; starting with ambient,about 3.2%
CC(CCCC(C)(C)O)C1CCC2C3CC=C4CC(OS(=O)(=O)O)CCC4(C)C3CCC12C (stereo not drawn) [Salt #9],Flow Property per USP<1174> Powder Flow,[1]; listed as 25HC3S benzathine,Passable - may hang up
same,Angle of Repose,[1]; listed as 25HC3S benzathine,43.7 degrees
same,"Angle of Repose, Rounded Whole Number",[1]; listed as 25HC3S benzathine,44 degrees
same,Water uptake (weight gain) up to about 95% relative humidity,[5]; [9],less than 0.5%
same,Reversibility of water uptake (in words),[5]; [9],reversibly lose all that water
same,Hygroscopicity (in words),[5]; [9],low hygroscopicity
same,Weight loss by TGA up to 200° C.,[2]; [9],0.4%
same,First significant endothermic transition (DSC),[3]; listed as benzathine,~211 °C
CC(CCCC(C)(C)O)C1CCC2C3CC=C4CC(OS(=O)(=O)O)CCC4(C)C3CCC12C (stereo not drawn) [Salt #10],Flow Property per USP<1174> Powder Flow,[1]; [10],Passable - may hang up
same,Angle of Repose,[1]; [10],49.2 degrees
same,"Angle of Repose, Rounded Whole Number",[1]; [10],49 degrees
same,Relative humidity above which the salt is hygroscopic,[5],above 75 % relative humidity
same,Weight loss by TGA up to 175° C. (in words),[2]; up to 175° C.,Negligible weight loss
same,First significant endothermic transition (DSC),[3]; listed as diethanolamine,~181 °C
CC(CCCC(C)(C)O)C1CCC2C3CC=C4CC(OS(=O)(=O)O)CCC4(C)C3CCC12C (stereo not drawn) [Salt #12],Flow Property per USP<1174> Powder Flow,[1]; [11],"Poor - must agitate,"
same,Angle of Repose,[1]; [11],46.3 degrees
same,"Angle of Repose, Rounded Whole Number",[1]; [11],46 degrees
same,Water uptake (weight gain) up to about 95% relative humidity,[5]; [12],less than 0.5%
same,Reversibility of water uptake (in words),[5]; [12],reversibly lose all that water
same,Hygroscopicity (in words),[5]; [12],low hygroscopicity
same,Weight loss by TGA up to 200° C.,[2]; [12],0.2%
same,First significant endothermic transition (DSC),[3]; listed as t-butylammonium,~201 °C
CC(CCCC(C)(C)O)C1CCC2C3CC=C4CC(OS(=O)(=O)O)CCC4(C)C3CCC12C (stereo not drawn) [Salt #13],Flow Property per USP<1174> Powder Flow,[1]; listed as 25HC3S magnesium,Fair - aid not needed
same,Angle of Repose,[1]; listed as 25HC3S magnesium,37.7 degrees
same,"Angle of Repose, Rounded Whole Number",[1]; listed as 25HC3S magnesium,38 degrees
same,Weight loss by TGA up to 127° C.,[2]; up to 127° C.,about 1.5%
same,Decomposition temperature (DSC),[3]; listed as crystalline 25HC3S magnesium,about 139 °C
